From patent publication US20130183257A1, “COMPOSITIONS AND METHODS FOR IMPROVING SKIN APPEARANCE” (SYTHEON LTD., priority 2009, published 2013)
Marks after values point to notes of the source that are not given here.

Test: Solubility study of solid ingredients in DOI and co-solvent
Assay type: physicochemical
Method: Noting the surprising ease with which the various phases incorporating the DOI were prepared, a study was conducted to evaluate whether the DOI was acting as or solvent for or aiding in the solubility of certain of the solid ingredients with which it was combined. In this particular evaluation, the solubility of two solid sunscreen actives, butyl methoxydibenzoylmethane (avobenzone) and benzophenone-3 (“BP3”), and another solid cosmetic active, hexylresorcinol (“HR”) were evaluated in DOI. Additionally, the solubility of avobenzone was further evaluated in C12-C15 alkylbenzoate (“AB”) and in the combination of DOI and C12-C15 alkylbenzoate (70:30)—avobenzone being the sunscreen active and C12-C15 alkylbenzoate a co-solvent of the Sunscreen Formulation of Example 5C above. Each solution was prepared by warming 10 grams of the solvents to ˜45° C., adding the avobenzone and stirring the mixture for at least 20 min to make sure the all of the solid is solubilized. The solutions were then allowed to stand at room temp (˜25 C) and then visually examined for signs of crystal formation at 18 hours and 24 hours. Percent solubility was then calculated.

[1] = room temp (~25 C), visual examination

Solubility of Avobenzone in the solvent (dissolved at ~45° C., standing at room temp (~25 C)): 23%*
Avobenzone crystal formation, 18 hours [1]: yes
Avobenzone crystal formation, 24 hours [1]: yes
Substance: C12-C15 alkylbenzoate [AB]
